According to paper PMC11595589, “A Pharmacokinetic and Bioavailability Study of Ecklonia cava Phlorotannins Following Intravenous and Oral Administration in Sprague–Dawley Rats” (Marine Drugs, 2024):

Experiment: Relative polarity by RP-HPLC of EK-ECP
Type: physicochemical
Settings: RP-HPLC chromatogram of EK-ECP
Protocol: A further detailed analysis of the phlorotannins present in EK-ECP was performed to identify and quantify the major components (individual phlorotannins) by reversed phase high performance liquid chromatography (RP-HPLC). A representative HPLC (Column: CAPCELL PAK C18; Detector: UV 234 nm) chromatogram and the identification of major components are presented in Figure 3. As shown in the chromatogram, dieckol at retention time 15.65 min was the most notable compound in EK-ECP. The chromatogram could be divided to relatively high (6–13 min), mid (13~20 min) and low polarity region (20~27 min) and each region could be represented by the regionally most notable peak 8,8′-bieckol, dieckol and PFF-A, respectively. These three phlorotannins were selected for monitoring the blood samples upon administration of EK-ECP during pharmacokinetic (PK) experiment. Other minor phlorotannins than the three notable ones identified were 2-O-(2,4,6-Trihydroxyphenyl)-6,6′-bieckol (7.217 min), 6,6′-bieckol (7.717 min), 7-phloroeckol (7.717 min), 2-phloroeckol (9.883 min), eckol (10.450 min), dioxinodehydroeckol (23.100 min) and fucofuroeckol A (23.650 min). Other notable peaks, such as those at 12.133, 17.483, 20.833, and 21.250 min, remain unidentified due to the technical challenges in isolating and identifying the corresponding single compounds.
The hydroxyl protons observed in the phlorotannin structures are attached to aromatic rings, resulting in distinct downfield shifts (near 9 ppm) due to the electron-withdrawing effects of the aromatic system. This contrasts with the hydroxyl groups found in aliphatic alcohols in general. […]
^1H NMR (500 MHz) was acquired on Bruker Avance III 500 MHz NMR spectrometer (Bruker Corporation, Billerica, MA, USA) using DMSO-d6 as a solvent. […] To quantify the total polyphenolic content of EK-ECP, the Folin–Ciocalteu reagent was reacted with EK-ECP dissolved in 50% aqueous ethanol, and the resulting solution was analyzed using a UV–Vis spectrophotometer (SPECTROstarNano, BMG Labtech, Ortenberg, Germany) at 725 nm. […]

Structure (SMILES) | relative polarity within the phlorotannin extract
Oc1cc(O)cc(Oc2c(O)cc(O)c3c2Oc2c(cc(O)c(-c4c(O)cc5c(c4O)Oc4c(Oc6cc(O)cc(O)c6)c(O)cc(O)c4O5)c2O)O3)c1 [8,8′-bieckol] | the most hydrophilic
Oc1cc(O)cc(Oc2c(O)cc(O)c3c2Oc2c(O)cc4oc5c(Oc6cc(O)cc(O)c6)c(O)cc(O)c5c4c2O3)c1 [PFF-A, phlorofucofuroeckol-A] | the most lipophilic
Oc1cc(O)cc(Oc2c(O)cc(O)c3c2Oc2c(O)cc(Oc4c(O)cc(Oc5c(O)cc(O)c6c5Oc5c(O)cc(O)cc5O6)cc4O)cc2O3)c1 [dieckol] | in between
